# In US5656600A, “α-ketoamide derivatives as inhibitors of thrombosis” (Corvas International, Inc., priority 1993, dated 1997):
# Columns and labels:
# α-thrombin = α-thrombin (Homo sapiens, UniProt P00734); assay: Amidolytic thrombin assay (inhibition constant Ki); assay type: biochemical
# Procedure: The ability of the compounds of the present invention to act as inhibitors of thrombin catalytic activity in comparison to Hirulog-1 (compound 25) was assessed by determining their inhibition constant, Ki.
# Enzyme activity was determined using the chromogenic substrate Pefachrome t-PA (CH3 SO2 -D-hexahydrotyrosine-glycyl-L-arginine-p-nitroaniline, obtained from Pentapharm Ltd.). The substrate was reconstituted in deionized water prior to use.
# Ki values were determined for test compounds using the following methodologies:
# The assay was conducted by combining in appropriate wells of a Corning microtiter plate, 50 μL of HBSA, 50 μL of the test compound at a specified concentration diluted in HBSA (or HBSA alone for Vo(uninhibited velocity) measurement), and 50 μL of the chromogenic substrate diluted in HBSA. At time zero, 50 μL of α-thrombin diluted in HBSA, was added to the wells yielding a final concentration of 0.25 nM in a total volume of 200 μL. Velocities of Pefachrome-tPA substrate hydrolysis which occurred over a 40 minute time period was measured by the change in absorbance at 405 nm using a Thermo Max® Kinetic Microplate Reader. […] The linear relationship between kobs and inhibitor concentration is indicative of a competitive, one step mechanism and was used to calculate kon and koff which yielded a value for Ki after taking into consideration the concentration and Km (38.5 μM) of the substrate in the assay.
# The initial velocity of Pefachrome t-PA hydrolysis was measured by the change in absorbance at 405 nm using a Thermo Max® Kinetic Microplate Reader over a 2 minute period in which less than 5% of the added substrate was utilized. The relationship between the ratio of the inhibited steady-state velocity (Vs) and the uninhibited velocity (Vo) to the concentration of inhibitor [It ], was analyzed using Equation 1 developed by Morrison , J. F., Biochim. Biophys. Acta, 185:269 (1969) for inhibitors which deplete a significant amount of the total enzyme (Et) over the course of the assay (designated tight binding inhibitors):
# Vs/Vo={([Et ]-[It ]-Ki*)+[([It ]+Ki*-[Et ])^2
# Ki* was determined by fitting Vs/Vo verses [I] using Equation 1 by non-linear regression analysis.
# The best fit of the data for both compounds was to the equation describing competitive inhibition.
# [1] = test system: pooled normal human plasma; assay: Ex vivo coagulation assay (APTT); conditions: normal citrated human plasma; FIG. 3
# Procedure: Fresh frozen pooled normal human plasma was obtained from George King Biomedical, Overland Park, KA. Measurements APTT was made using the Coag-A-Mate RA4 automated coagulometer (General Diagnostics, Organon Technica, Oklahoma City, OK) using the Automated APTT reagent (Organon Technica, Durham, NC) as the initiator of clotting according to the manufacturers instructions. The assay was conducted by making a series of dilutions of the test compounds in rapidly thawed plasma followed by adding 200 μL to the wells of the assay carousel.
substance,measurement,setting,value
(D--Phe)--Pro--Arg--Pro--(Gly4 --Asn--Gly--Asp--Phe--Glu--Glu--IIe--Pro--Glu--Glu--Tyr--Leu--OH [Compound 25],Ki,"α-thrombin; chromogenic substrate Pefachrome t-PA, HBSA pH 7.5, slow-binding (kon/koff) or Dixon analysis",0.437 nM
same,kinetics / mechanism of thrombin inhibition,α-thrombin; in words,"rapid, reversible kinetics of inhibition"
same,prolongation of activated partial thromboplastin time (APTT),[1],prolonged the APTT in a dose dependent manner
